For orientation: IC50 means the concentration needed to halve the response being measured. A lower IC50 goes with higher potency.

In patent US20210236476A1, “METHODS OF TREATING CANCER WITH SMALL MOLECULE PD-L1 INHIBITORS” (CHEMOCENTRYX, INC., priority 2018, published 2021) one finds IC50 data, which are given here for 22 compounds.

T1 sequence (Q9NZQ7 19-239 limits assumed): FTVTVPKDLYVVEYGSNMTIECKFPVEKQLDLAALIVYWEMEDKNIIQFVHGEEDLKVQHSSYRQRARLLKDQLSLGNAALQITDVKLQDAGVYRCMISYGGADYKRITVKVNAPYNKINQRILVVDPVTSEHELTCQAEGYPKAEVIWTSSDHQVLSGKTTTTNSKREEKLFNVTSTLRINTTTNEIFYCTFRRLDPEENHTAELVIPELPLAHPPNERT

The assay concerns the target T1, human PD-L1 / human PD-1 interaction (Homo sapiens, UniProt Q9NZQ7).
T1 construct: purchased R&D (PD-L1); ACRO Biosystems (PD-1, biotin)
Kind of assay: ELISA of PD-1/PD-L1 interaction. In kind it is binding. The gist of the method: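 Plates coated with 1 μg/mL human PD-L1 and blocked with BSA; serially diluted (1:5) compounds plus biotinylated human PD-1 (0.3 μg/mL) incubated 1 h at 37° C. Bound PD-1 detected with streptavidin-HRP/TMB, absorbance at 450 nm.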
Background: In an ELISA, binding on a coated surface is turned into a signal by an enzyme label.
Turning to `Cc1c(OCCCN2CCC(O)CC2)cccc1-c1cccc2c1CC[C@@H]2Oc1cc(OCc2cncc(C#N)c2)c(CN[C@@](C)(CO)C(=O)O)cc1Cl`, the IC50 is less than 5 nM. As for `Cc1c(OCCCN2CCC(O)CC2)cccc1-c1cccc2c1CC[C@@H]2Oc1cc(OCc2cncc(C#N)c2)c(CN[C@@H]2CCCC[C@@H]2O)cc1Cl`, the IC50 is less than 5 nM. In the case of `Cc1c(OCCCN2CC3(CC(O)C3)C2)cccc1-c1cccc2c1CC[C@@H]2Oc1cc(OCc2cncc(C#N)c2)c(CN[C@H](C(=O)O)[C@@H](C)O)cc1Cl` it was less than 5 nM. In the case of `Cc1c(OCCCN2CCCCC2)cccc1-c1cccc2c1CC[C@@H]2Oc1cc(OCc2cncc(C#N)c2)c(CNC[C@H]2CCC(=O)N2)cc1Cl` it was less than 5 nM. In the case of `Cc1c(OCCCN2CCCCC2)cccc1-c1cccc2c1CC[C@@H]2Oc1cc(OCc2cncc(C#N)c2)c(CNC[C@@H]2CCC(=O)N2)cc1Cl` it was less than 5 nM; in that of `Cc1c(OCCCN2CCC(C)(O)CC2)cccc1-c1cccc2c1CC[C@@H]2Oc1cc(OCc2cc(C#N)cc(C#N)c2)c(CNC[C@@H]2CCC(=O)N2)cc1Cl`, less than 5 nM.

For the compound `N#Cc1cncc(COc2cc(O[C@H]3CCc4c(-c5cccc(OCCCN6CCC6)c5Cl)cccc43)c(Cl)cc2CNC[C@@H]2CCC(=O)N2)c1`, the concentration for half-maximal inhibition (IC50) is less than 5 nM. In the case of `CN1CCC(COc2cccc(-c3cccc4c3CC[C@@H]4Oc3cc(OCc4cncc(C#N)c4)c(CNC[C@@H]4CCC(=O)N4)cc3Cl)c2Cl)C1` (stereo partly shown) it was less than 5 nM. In the case of `Cc1c(OCCCN2CCCC[C@H]2C)cccc1-c1cccc2c1CC[C@@H]2Oc1cc(OCc2cc(C#N)cc(C#N)c2)c(CNC[C@H]2CCC(=O)N2)cc1Cl` it was less than 5 nM; in that of `CC1(F)CCN(CCCOc2cccc(-c3cccc4c3CC[C@@H]4Oc3cc(OCc4cncc(C#N)c4)c(CN[C@H]4CCC(=O)NC4)cc3Cl)c2Cl)CC1`, 5 to 500 nM; in that of `Cc1c(OCCCN2CCC2)cccc1-c1cccc2c1CC[C@@H]2Oc1cc(OCc2cc(C#N)cc(C#N)c2)c(CNC[C@H]2CCC(=O)N2)cc1Cl`, less than 5 nM. Compound `CC1(F)CCN(CCCOc2cccc(-c3cccc4c3CC[C@@H]4Oc3cc(OCc4cncc(C#N)c4)c(CNC[C@@H]4CCC(=O)N4)cc3Cl)c2Cl)CC1` yielded an IC50 of less than 5 nM. In the case of `Cc1c(OCCCN2CCC(O)CC2(C)C)cccc1-c1cccc2c1CC[C@@H]2Oc1cc(OCc2cc(C#N)cc(C#N)c2)c(CN[C@H]2CCC(=O)NC2)cc1Cl` (stereo partly shown) it was less than 5 nM; in that of `Cc1c(OCCCN2CCCC2)cccc1-c1cccc2c1CC[C@@H]2Oc1cc(OCc2cc(C#N)cc(C#N)c2)c(CN[C@H]2CCC(=O)NC2)cc1Cl`, less than 5 nM.

In turn, `Cc1c(OCCCN2CCC(F)CC2)cccc1-c1cccc2c1CC[C@@H]2Oc1cc(OCc2cc(C#N)cc(C#N)c2)c(CNCC(=O)NS(C)(=O)=O)cc1Cl` yielded an IC50 of less than 5 nM. In the case of `Cc1c(OCCCN2CCC(C)(F)CC2)cccc1-c1cccc2c1CC[C@@H]2Oc1cc(OCc2cc(C#N)cc(C#N)c2)c(CN[C@@H]2CCC[C@H]2O)cc1Cl` it was 5 to 500 nM; in that of `Cc1c(OCCCN2CCC(C)CC2)cccc1-c1cccc2c1CC[C@@H]2Oc1cc(OCc2cc(C#N)cc(C#N)c2)c(CN[C@H]2CCC(=O)NC2)cc1Cl`, 5 to 500 nM. In the case of `CCN1CCC(COc2cccc(-c3cccc4c3CC[C@@H]4Oc3cc(OCc4cncc(C#N)c4)c(CNC[C@@H]4CCC(=O)N4)cc3Cl)c2Cl)C1` (stereo partly shown) it was less than 5 nM; in that of `Cc1c(OCCCN2[C@H](C)CCC[C@@H]2C)cccc1-c1cccc2c1CC[C@@H]2Oc1cc(OCc2cc(C#N)cc(C#N)c2)c(CN[C@H]2CCC(=O)NC2)cc1Cl`, 5 to 500 nM; in that of `CC(C)N1CCC(COc2cccc(-c3cccc4c3CC[C@@H]4Oc3cc(OCc4cncc(C#N)c4)c(CNC[C@@H]4CCC(=O)N4)cc3Cl)c2Cl)C1` (stereo partly shown), less than 5 nM. With `CC(C)N1CCC(COc2cccc(-c3cccc4c3CC[C@@H]4Oc3cc(OCc4cncc(C#N)c4)c(CN[C@H]4CCC(=O)NC4)cc3Cl)c2Cl)C1` (stereo partly shown), the IC50 is less than 5 nM. On to `Cc1c(OCCCN2C(C)CCC2C)cccc1-c1cccc2c1CC[C@@H]2Oc1cc(OCc2cc(C#N)cc(C#N)c2)c(CN[C@H]2CCC(=O)NC2)cc1Cl` (stereo partly shown), for which the IC50 is less than 5 nM.
